Measured values taken from PubChem BioAssay (NCI).
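Cells were grown in 96-well plates and exposed to each compound for 48 hours at five concentrations; endpoints were interpolated linearly between bracketing concentrations, or set to the highest concentration if not reached. The concentration for full growth arrest is given as TGI.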

Tests used:
Test in all cases: NCI tumour cell line growth inhibition, 48 h
MDA-N = system: MDA-N
HCT-116 colon = system: HCT-116 colon
UACC-62 melanoma = system: UACC-62 melanoma
SK-MEL-28 melanoma = system: SK-MEL-28 melanoma
OVCAR-4 ovarian = system: OVCAR-4 ovarian
RPMI-8226 leukemia = system: RPMI-8226 leukemia
BT-549 breast = system: BT-549 breast
DU-145 prostate = system: DU-145 prostate
M14 melanoma = system: M14 melanoma
SF-268 CNS = system: SF-268 CNS
MCF7 breast = system: MCF7 breast
SF-295 CNS = system: SF-295 CNS
MDA-MB-231 breast = system: MDA-MB-231 breast
ACHN renal = system: ACHN renal
OVCAR-5 ovarian = system: OVCAR-5 ovarian
COLO 205 colon = system: COLO 205 colon
OVCAR-3 ovarian = system: OVCAR-3 ovarian
SW-620 colon = system: SW-620 colon
RXF 393 renal = system: RXF 393 renal
HS 578T breast = system: HS 578T breast
SK-OV-3 ovarian = system: SK-OV-3 ovarian
SF-539 CNS = system: SF-539 CNS
KM12 colon = system: KM12 colon
SNB-19 CNS = system: SNB-19 CNS
NCI-H23 lung = system: NCI-H23 lung
NCI-H460 lung = system: NCI-H460 lung
SNB-75 CNS = system: SNB-75 CNS
K-562 leukemia = system: K-562 leukemia
NCI-H522 lung = system: NCI-H522 lung
CAKI-1 renal = system: CAKI-1 renal
NCI/ADR-RES ovarian = system: NCI/ADR-RES ovarian
UACC-257 melanoma = system: UACC-257 melanoma
PC-3 prostate = system: PC-3 prostate
786-0 renal = system: 786-0 renal
MOLT-4 leukemia = system: MOLT-4 leukemia
OVCAR-8 ovarian = system: OVCAR-8 ovarian
TK-10 renal = system: TK-10 renal
A498 renal = system: A498 renal
HCT-15 colon = system: HCT-15 colon
EKVX NSCLC = system: EKVX NSCLC
SK-MEL-2 melanoma = system: SK-MEL-2 melanoma
U251 CNS = system: U251 CNS
A549 NSCLC = system: A549 NSCLC
SN12C renal = system: SN12C renal
HOP-62 NSCLC = system: HOP-62 NSCLC
HT29 colon = system: HT29 colon
UO-31 renal = system: UO-31 renal
SK-MEL-5 melanoma = system: SK-MEL-5 melanoma
T-47D breast = system: T-47D breast
MDA-MB-435 = system: MDA-MB-435
IGROV1 ovarian = system: IGROV1 ovarian
NCI-H226 lung = system: NCI-H226 lung
SR leukemia = system: SR leukemia
CCRF-CEM leukemia = system: CCRF-CEM leukemia
MALME-3M melanoma = system: MALME-3M melanoma
HL-60(TB) leukemia = system: HL-60(TB) leukemia
LOX IMVI melanoma = system: LOX IMVI melanoma
HOP-92 NSCLC = system: HOP-92 NSCLC

Structure (SMILES): CCOC(=O)C1=COC(C)(C)CC1=O
- TGI (MDA-N): > 100 µM
- TGI (HCT-116 colon): > 100 µM
- TGI (UACC-62 melanoma): > 100 µM
- TGI (SK-MEL-28 melanoma): > 100 µM
- TGI (OVCAR-4 ovarian): > 100 µM
- TGI (RPMI-8226 leukemia): > 100 µM
- TGI (BT-549 breast): > 100 µM
- TGI (DU-145 prostate): > 100 µM
- TGI (M14 melanoma): > 100 µM
- TGI (SF-268 CNS): > 100 µM
- TGI (MCF7 breast): > 100 µM
- TGI (SF-295 CNS): > 100 µM
- TGI (MDA-MB-231 breast): > 100 µM
- TGI (ACHN renal): > 100 µM
- TGI (OVCAR-5 ovarian): > 100 µM
- TGI (COLO 205 colon): > 100 µM
- TGI (OVCAR-3 ovarian): > 100 µM
- TGI (SW-620 colon): > 100 µM
- TGI (RXF 393 renal): > 100 µM
- TGI (HS 578T breast): > 100 µM
- TGI (SK-OV-3 ovarian): > 100 µM
- TGI (SF-539 CNS): > 100 µM
- TGI (KM12 colon): > 100 µM
- TGI (SNB-19 CNS): > 100 µM
- TGI (NCI-H23 lung): > 100 µM
- TGI (NCI-H460 lung): > 100 µM
- TGI (SNB-75 CNS): > 100 µM
- TGI (K-562 leukemia): > 100 µM
- TGI (NCI-H522 lung): > 100 µM
- TGI (CAKI-1 renal): > 100 µM
- TGI (NCI/ADR-RES ovarian): > 100 µM
- TGI (UACC-257 melanoma): > 100 µM
- TGI (PC-3 prostate): > 100 µM
- TGI (786-0 renal): > 100 µM
- TGI (MOLT-4 leukemia): > 100 µM
- TGI (OVCAR-8 ovarian): > 100 µM
- TGI (TK-10 renal): > 100 µM
- TGI (A498 renal): > 100 µM
- TGI (HCT-15 colon): > 100 µM
- TGI (EKVX NSCLC): > 100 µM
- TGI (SK-MEL-2 melanoma): > 100 µM
- TGI (U251 CNS): > 100 µM
- TGI (A549 NSCLC): > 100 µM
- TGI (SN12C renal): > 100 µM
- TGI (HOP-62 NSCLC): > 100 µM
- TGI (HT29 colon): > 100 µM
- TGI (UO-31 renal): > 100 µM
- TGI (SK-MEL-5 melanoma): > 100 µM
- TGI (T-47D breast): > 100 µM
- TGI (MDA-MB-435): > 100 µM

Structure (SMILES): c1ccc(-c2sc(-c3ccccc3)c3c2C2CCC3C2)cc1
- TGI (MDA-N): > 100 µM
- TGI (HCT-116 colon): > 100 µM
- TGI (UACC-62 melanoma): > 100 µM
- TGI (SK-MEL-28 melanoma): > 100 µM
- TGI (OVCAR-4 ovarian): > 100 µM
- TGI (RPMI-8226 leukemia): 44.9 µM
- TGI (BT-549 breast): > 100 µM
- TGI (IGROV1 ovarian): > 100 µM
- TGI (DU-145 prostate): > 100 µM
- TGI (M14 melanoma): > 100 µM
- TGI (SF-268 CNS): > 100 µM
- TGI (SF-295 CNS): > 100 µM
- TGI (MDA-MB-231 breast): > 100 µM
- TGI (ACHN renal): > 100 µM
- TGI (OVCAR-5 ovarian): > 100 µM
- TGI (COLO 205 colon): 38.1 µM
- TGI (OVCAR-3 ovarian): > 100 µM
- TGI (SW-620 colon): > 100 µM
- TGI (RXF 393 renal): 84.5 µM
- TGI (HS 578T breast): 70.6 µM
- TGI (SK-OV-3 ovarian): > 100 µM
- TGI (SF-539 CNS): 67.7 µM
- TGI (NCI-H226 lung): 83.3 µM
- TGI (KM12 colon): > 100 µM
- TGI (SNB-19 CNS): > 100 µM
- TGI (NCI-H23 lung): > 100 µM
- TGI (NCI-H460 lung): 88.2 µM
- TGI (SR leukemia): 56.8 µM
- TGI (K-562 leukemia): > 100 µM
- TGI (CCRF-CEM leukemia): > 100 µM
- TGI (MALME-3M melanoma): > 100 µM
- TGI (NCI-H522 lung): 60.5 µM
- TGI (CAKI-1 renal): > 100 µM
- TGI (NCI/ADR-RES ovarian): > 100 µM
- TGI (UACC-257 melanoma): > 100 µM
- TGI (PC-3 prostate): 72.6 µM
- TGI (HL-60(TB) leukemia): > 100 µM
- TGI (786-0 renal): > 100 µM
- TGI (MOLT-4 leukemia): > 100 µM
- TGI (OVCAR-8 ovarian): > 100 µM
- TGI (TK-10 renal): 89.7 µM
- TGI (A498 renal): > 100 µM
- TGI (HCT-15 colon): > 100 µM
- TGI (EKVX NSCLC): > 100 µM
- TGI (SK-MEL-2 melanoma): 39.5 µM
- TGI (U251 CNS): > 100 µM
- TGI (A549 NSCLC): > 100 µM
- TGI (SN12C renal): > 100 µM
- TGI (HOP-62 NSCLC): > 100 µM
- TGI (LOX IMVI melanoma): > 100 µM
- TGI (HT29 colon): 34.5 µM
- TGI (UO-31 renal): 58.3 µM
- TGI (SK-MEL-5 melanoma): 49.7 µM
- TGI (T-47D breast): > 100 µM
- TGI (MDA-MB-435): > 100 µM
- TGI (HOP-92 NSCLC): 47.9 µM
